Assay results published in patent US20230040770A1, “HETEROCYCLIC COMPOUND AND USE THEREOF” (TAKEDA PHARMACEUTICAL COMPANY LIMITED, priority 2019, published 2023).

What follows are molecules tested against T1, human orexin type 2 receptor (Homo sapiens, UniProt O43614) (assay: Measurement of orexin type 2 receptor agonist activity (calcium indicator fluorescence, CHO cells forcibly expressing human OX2 receptor)). Settings: compound at 3 μM; 0% = DMSO, 100% = orexin A (human) 10 nM.
T1 construct: expressed in transfected cells
T1 sequence (O43614 1-444): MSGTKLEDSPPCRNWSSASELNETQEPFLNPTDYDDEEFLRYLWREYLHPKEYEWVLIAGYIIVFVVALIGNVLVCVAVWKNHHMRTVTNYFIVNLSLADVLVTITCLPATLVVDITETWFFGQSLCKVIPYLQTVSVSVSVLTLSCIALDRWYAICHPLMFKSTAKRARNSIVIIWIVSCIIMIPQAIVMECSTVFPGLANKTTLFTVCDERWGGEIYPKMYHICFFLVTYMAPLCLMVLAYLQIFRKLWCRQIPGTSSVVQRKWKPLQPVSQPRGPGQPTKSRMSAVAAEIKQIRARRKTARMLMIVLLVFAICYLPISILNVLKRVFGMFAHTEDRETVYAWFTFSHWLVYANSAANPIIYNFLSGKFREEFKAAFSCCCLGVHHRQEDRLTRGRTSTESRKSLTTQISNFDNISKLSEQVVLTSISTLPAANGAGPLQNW
Format: cell-based
Outline: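 Agonist response normalised between vehicle (0%) and orexin A at 10 nM final (100%), from kinetic Fluo-4 calcium signals recorded for about 2 min after compound addition. Cells: stable human OX2R CHO clone, dye-loaded 30 min at 37 °C plus 30 min at room temperature.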

| OX2R agonist activity (3 μM, %) | SMILES |
| --- | --- |
| 93% | CS(=O)(=O)N[C@@H]1[C@H](Cc2cccc(-c3ccccc3)c2F)N(C(=O)C2CC(F)C2)CC1(F)F (stereo partly drawn) [Example 441, N-[(2S,3R)-4,4-difluoro-2-[(2-fluoro[1,1′-biphenyl]-3-yl)methyl]-1-(3-fluorocyclobutane-1-carbonyl)pyrrolidin-3-yl]methanesulfonamide] |
| 90% | CCS(=O)(=O)N[C@@H]1[C@H](Cc2cccc(-c3cccc(C(F)F)c3)c2F)N(C(=O)C2CCO2)CC1(F)F (stereo partly drawn) [Example 504, N-[(S,3R)-2-{[3′-(difluoromethyl)-2-fluoro[1,1′-biphenyl]-3-yl]methyl}-4,4-difluoro-1-(oxetane-2-carbonyl)pyrrolidin-3-yl]ethanesulfonamide] |
| 99% | CCS(=O)(=O)N[C@H]1[C@@H](F)CN(C(=O)[C@H]2CCCO2)[C@H]1Cc1cccc(-c2ccccc2)c1F [Example 413, N-{(2S,3R,4S)-4-fluoro-2-[(2-fluoro[1,1′-biphenyl]-3-yl)methyl]-1-[(2R)-oxolane-2-carbonyl]pyrrolidin-3-yl}ethanesulfonamide] |
| 92% | O=C(C1CCO1)N1C[C@H](F)[C@H](NS(=O)(=O)C2CC2)[C@@H]1Cc1cccc(-c2cc(F)ccc2F)c1F (stereo partly drawn) [Example 495, N-{(2S,3R,4S)-4-fluoro-1-(oxetane-2-carbonyl)-2-[(2,2′,5′-trifluoro[1,1′-biphenyl]-3-yl)methyl]pyrrolidin-3-yl}cyclopropanesulfonamide] |
| 86% | CCS(=O)(=O)N[C@@H]1[C@H](Cc2cccc(-c3cc(C)cc(F)c3)c2F)N(C(=O)C2(O)CCC2)CC1(F)F [Example 394, N-[(2S,3R)-2-[(2,3′-difluoro-5′-methyl[1,1′-biphenyl]-3-yl)methyl]-4,4-difluoro-1-(1-hydroxycyclobutane-1-carbonyl)pyrrolidin-3-yl]ethanesulfonamide] |
| 95% | CCS(=O)(=O)N[C@@H]1[C@H](Cc2cccc(-c3cccc(OC)c3)c2F)N(C(=O)C2CC2)CC1(F)F [Example 512, N-{(2S,3R)-1-(cyclopropanecarbonyl)-4,4-difluoro-2-[(2-fluoro-3′-methoxy[1,1′-biphenyl]-3-yl)methyl]pyrrolidin-3-yl}ethanesulfonamide] |
| 95% | CCS(=O)(=O)N[C@@H]1[C@H](Cc2cccc(-c3cc(F)ccc3F)c2F)N(C(=O)[C@H]2C[C@@H](F)C2)CC1(F)F [Example 381, N-{(2S,3R)-4,4-difluoro-1-((1s,3R)-3-fluorocyclobutane-1-carbonyl)-2-[(2,2′,5′-trifluoro[1,1′-biphenyl]-3-yl)methyl]pyrrolidin-3-yl}ethanesulfonamide] |
| 102% | CS(=O)(=O)N[C@@H]1[C@H](Cc2cccc(-c3ccccc3)c2F)N(C(=O)C2CCO2)CC1(F)F (stereo partly drawn) [Example 79, N-[(2S,3R)-4,4-difluoro-2-[(2-fluoro[1,1′-biphenyl]-3-yl)methyl]-1-(oxetane-2-carbonyl)pyrrolidin-3-yl]methanesulfonamide] |
| 98% | CCS(=O)(=O)N[C@@H]1[C@H](Cc2cccc(-c3cccc(F)c3F)c2F)N(C(=O)C2CC(F)C2)CC1(F)F (stereo partly drawn) [Example 349, N-{(2S,3R)-4,4-difluoro-1-(3-fluorocyclobutane-1-carbonyl)-2-[(2,2′,3′-trifluoro[1,1′-biphenyl]-3-yl)methyl]pyrrolidin-3-yl}ethanesulfonamide] |
| 95% | CCS(=O)(=O)N[C@H]1[C@@H](F)CN(C(=O)N(C)C)[C@H]1Cc1cccc(-c2ccccc2)c1F [Example 295, (2S,3R,4S)-3-[(ethanesulfonyl)amino]-4-fluoro-2-[(2-fluoro[1,1′-biphenyl]-3-yl)methyl]-N,N-dimethylpyrrolidine-1-carboxamide] |
| 105% | CC(C)C(=O)N1CC(F)(F)[C@H](NS(=O)(=O)C2CC2)[C@@H]1Cc1cccc(-c2cccc(F)c2)c1F [Example 163, N-[(2S,3R)-2-[(2,3′-difluoro[1,1′-biphenyl]-3-yl)methyl]-4,4-difluoro-1-(2-methylpropanoyl)pyrrolidin-3-yl]cyclopropanesulfonamide] |
| 93% | CS(=O)(=O)N[C@@H]1[C@H](Cc2cccc(-c3cc(F)ccc3F)c2F)N(C(=O)C2CC(F)C2)CC1(F)F (stereo partly drawn) [Example 439, N-{(2S,3R)-4,4-difluoro-1-(3-fluorocyclobutane-1-carbonyl)-2-[(2,2′,5′-trifluoro[1,1′-biphenyl]-3-yl)methyl]pyrrolidin-3-yl}methanesulfonamide] |
| 93% | O=C(C1CCO1)N1C[C@H](F)[C@H](NS(=O)(=O)C2CC2)[C@@H]1Cc1cccc(-c2cccc(Cl)c2)c1F (stereo partly drawn) [Example 485, N-[(2S,3R,4S)-2-[(3′-chloro-2-fluoro[1,1′-biphenyl]-3-yl)methyl]-4-fluoro-1-(oxetane-2-carbonyl)pyrrolidin-3-yl]cyclopropanesulfonamide] |
| 88% | CCS(=O)(=O)N[C@H]1[C@@H](F)CN(C(=O)N(C)C)[C@H]1Cc1cccc(-c2cc(F)cc(F)c2)c1F [Example 329, (2S,3R,4S)-3-[(ethanesulfonyl)amino]-4-fluoro-N,N-dimethyl-2-[(2,3′,5′-trifluoro[1,1′-biphenyl]-3-yl)methyl]pyrrolidine-1-carboxamide] |
| 83% | CCS(=O)(=O)N[C@@H]1[C@H](Cc2cccc(-c3cccc(F)c3)c2F)N(C(=O)C2(O)CCC2)CC1(F)F [Example 273, N-[(2S,3R)-2-[(2,3′-difluoro[1,1′-biphenyl]-3-yl)methyl]-4,4-difluoro-1-(1-hydroxycyclobutane-1-carbonyl)pyrrolidin-3-yl]ethanesulfonamide] |
| 95% | CN(C)S(=O)(=O)N[C@@H]1[C@H](Cc2cccc(-c3cccc(F)c3F)c2F)N(C(=O)C2(O)CCC2)CC1(F)F [Example 438, N′-{(2S,3R)-4,4-difluroo-1-(1-hydroxycyclobutane-1-carbonyl)-2-[(2,2′,3′-trifluoro[1,1′-biphenyl]-3-yl)methyl]pyrrolidin-3-yl}-N,N-dimethylsulfuric diamide] |
| 91% | CS(=O)(=O)N[C@H]1[C@@H](F)CN(C(=O)C2CCO2)[C@H]1Cc1cccc(-c2cc(F)cc(F)c2)c1F (stereo partly drawn) [Example 324, N-{(2S,3R,4S)-4-fluoro-1-(oxetane-3-2-carbonyl)-2-[(2,3′,5′-trifluoro[1,1′-biphenyl]-3-yl)methyl]pyrrolidin-3-yl}methanesulfonamide] |
| 94% | CCS(=O)(=O)N[C@@H]1[C@H](Cc2cccc(-c3ccccc3)c2F)N(C(=O)[C@H]2C[C@@H](F)C2)CC1(F)F [Example 383, N-[(2S,3R)-4,4-difluoro-2-[(2-fluoro[1,1′-biphenyl]-3-yl)methyl]-1-((1s,3R)-3-fluorocyclobutane-1-carbonyl)pyrrolidin-3-yl]ethanesulfonamide] |
| 80% | CCS(=O)(=O)N[C@@H]1[C@H](Cc2cccc(-c3cccc(F)c3F)c2F)N(C(=O)N2CCC2)CC1(F)F [Example 289, N-{(2S,3R)-1-(azetidine-1-carbonyl)-4,4-difluoro-2-[(2,2′,3′-trifluoro[1,1′-biphenyl]-3-yl)methyl]pyrrolidin-3-yl}ethanesulfonamide] |
| 95% | O=C(N1CC(F)(F)[C@H](NS(=O)(=O)C2CC2)[C@@H]1Cc1cccc(-c2cccc(F)c2F)c1F)C1(O)CCC1 [Example 424, N-{(2S,3R)-4,4-difluoro-1-(1-hydroxycyclobutane-1-carbonyl)-2-[(2,2′,3′-trifluoro[1,1′-biphenyl]-3-yl)methyl]pyrrolidin-3-yl}cyclopropanesulfonamide] |
| 93% | CS(=O)(=O)N[C@@H]1[C@H](Cc2cccc(-c3cccc(F)c3)c2F)N(C(=O)C2(O)CCC2)CC1(F)F [Example 13, N-[(2S,3R)-2-[(2,3′-difluoro[1,1′-biphenyl]-3-yl)methyl]-4,4-difluoro-1-(1-hydroxycyclobutane-1-carbonyl)pyrrolidin-3-yl]methanesulfonamide] |
| 96% | CCS(=O)(=O)N[C@H]1[C@@H](F)CN(C(=O)N(C)C)[C@H]1Cc1cccc(-c2cc(F)ccc2F)c1F [Example 294, (2S,3R,4S)-3-[(ethanesulfonyl)amino]-4-fluoro-N,N-dimethyl-2-[(2,2′,5′-trifluoro[1,1′-biphenyl]-3-yl)methyl]pyrrolidine-1-carboxamide] |
| 89% | CS(=O)(=O)N[C@@H]1[C@H](Cc2cccc(-c3cc(F)ccc3F)c2F)N(C(=O)[C@H]2CCO2)CC1(F)F [Example 122, N-{(2S,3R)-4,4-difluoro-1-((2R)-oxetane-2-carbonyl)-2-[(2,2′,5′-trifluoro[1,1′-biphenyl-]-3-yl)methyl]pyrrolidin-3-yl}methanesulfonamide] |
| 83% | CN(C)C(=O)N1CC(F)(F)[C@H](NS(=O)(=O)N(C)C)[C@@H]1Cc1cccc(-c2cccc(F)c2)c1F [Example 528, (2S,3R)-2-[(2,3′-difluoro[1,1′-biphenyl]-3-yl)methyl]-3-[(dimethylsulfamoyl)amino]-4,4-difluoro-N,N-dimethylpyrrolidine-1-carboxamide] |
